Reference: PubChem BioAssay (NCI)
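Method: 48-hour compound exposure of cells in 96-well plates, five concentrations, linear interpolation of endpoints. TGI: concentration producing complete growth inhibition.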

Experiments:
Assay in all cases: NCI tumour cell line growth inhibition, 48 h
SN12C renal = system: SN12C renal
SK-OV-3 ovarian = system: SK-OV-3 ovarian
SR leukemia = system: SR leukemia
LOX IMVI melanoma = system: LOX IMVI melanoma
SF-268 CNS = system: SF-268 CNS
HCT-15 colon = system: HCT-15 colon
SK-MEL-5 melanoma = system: SK-MEL-5 melanoma
K-562 leukemia = system: K-562 leukemia
M14 melanoma = system: M14 melanoma
IGROV1 ovarian = system: IGROV1 ovarian
ACHN renal = system: ACHN renal
NCI-H460 lung = system: NCI-H460 lung
KM20L2 colon = system: KM20L2 colon
KM12 colon = system: KM12 colon
UACC-62 melanoma = system: UACC-62 melanoma
OVCAR-3 ovarian = system: OVCAR-3 ovarian
NCI-H226 lung = system: NCI-H226 lung
UO-31 renal = system: UO-31 renal
HT29 colon = system: HT29 colon
OVCAR-4 ovarian = system: OVCAR-4 ovarian
SF-539 CNS = system: SF-539 CNS
NCI-H23 lung = system: NCI-H23 lung
COLO 205 colon = system: COLO 205 colon
U251 CNS = system: U251 CNS
SK-MEL-2 melanoma = system: SK-MEL-2 melanoma
OVCAR-8 ovarian = system: OVCAR-8 ovarian
MALME-3M melanoma = system: MALME-3M melanoma
SW-620 colon = system: SW-620 colon
TK-10 renal = system: TK-10 renal
SNB-19 CNS = system: SNB-19 CNS
HOP-62 NSCLC = system: HOP-62 NSCLC
SK-MEL-28 melanoma = system: SK-MEL-28 melanoma
786-0 renal = system: 786-0 renal
OVCAR-5 ovarian = system: OVCAR-5 ovarian
HCT-116 colon = system: HCT-116 colon
RXF 393 renal = system: RXF 393 renal
HOP-92 NSCLC = system: HOP-92 NSCLC
A549 NSCLC = system: A549 NSCLC
CCRF-CEM leukemia = system: CCRF-CEM leukemia
A498 renal = system: A498 renal
RPMI-8226 leukemia = system: RPMI-8226 leukemia
HCC-2998 colon = system: HCC-2998 colon
UACC-257 melanoma = system: UACC-257 melanoma
SNB-75 CNS = system: SNB-75 CNS
EKVX NSCLC = system: EKVX NSCLC
NCI-H522 lung = system: NCI-H522 lung
CAKI-1 renal = system: CAKI-1 renal
SF-295 CNS = system: SF-295 CNS
MOLT-4 leukemia = system: MOLT-4 leukemia

Measured: TGI

COc1cccc(/C=N/[N-]C(N)=O)c1[O-].[OH3+].[Zn+2]
> 100 µM: SN12C renal | SK-OV-3 ovarian | SR leukemia | LOX IMVI melanoma | SF-268 CNS | HCT-15 colon | SK-MEL-5 melanoma | K-562 leukemia | M14 melanoma | IGROV1 ovarian | ACHN renal | NCI-H460 lung | KM20L2 colon | KM12 colon | UACC-62 melanoma | OVCAR-3 ovarian | NCI-H226 lung | UO-31 renal | HT29 colon | OVCAR-4 ovarian | SF-539 CNS | NCI-H23 lung | COLO 205 colon | U251 CNS | SK-MEL-2 melanoma | OVCAR-8 ovarian | MALME-3M melanoma | SW-620 colon | TK-10 renal | SNB-19 CNS | HOP-62 NSCLC | SK-MEL-28 melanoma | 786-0 renal | OVCAR-5 ovarian | HCT-116 colon | RXF 393 renal | HOP-92 NSCLC | A549 NSCLC | CCRF-CEM leukemia | A498 renal | RPMI-8226 leukemia | HCC-2998 colon | UACC-257 melanoma | SNB-75 CNS | EKVX NSCLC | NCI-H522 lung | CAKI-1 renal | SF-295 CNS | MOLT-4 leukemia
